Experimental data from patent US12322837B2, “Electrochemical reduction of halogenated compounds comprising a haloalkane” (Massachusetts Institute of Technology, priority 2021, dated 2025).
Converted amounts (≈) assume the structure as drawn.

How the values were obtained:
[1] = Ionic conductivity of NO2-Ph-SF5-containing electrolytes; type: physicochemical
Excerpt: Theoretical capacities correspond to 8 e^−per molecule. Capacities increased from 292 to 362 mAh·gsub-stack^−1 as concentration increased from 3 M to 4 M, beyond which further gains were negligible. The maximum gravimetric energy of 1085 Wh·kgsub-stack^−1 was obtained at 4.5 M. Capacity and energy decreased with concentrations exceeding 4.5 M due to diminishing supporting solvent (DMSO, ˜16 wt. % of the catholyte at 5 M), which led to significant decline in ionic conductivity from 6.4 to 0.6 mS·cm^−1 from 0.1 M to 5 M (FIG. 24). Additionally, low DMSO content decreases the ability to solubilize LiF, making electrode passivation effects more severe. Capacities remained constant at ˜362 mAh·gsub-stack^−1 from 0.3-1.0 mA·cm^−2 (0.01 C-0.04 C) and decreased moderately thereafter up to 3 mA·cm^−2 (0.12 C), indicating excellent rate capability.

[2] = Solubility/miscibility of reactants in DMSO or 0.1 M LiClO4/DMSO; type: physicochemical; settings: for miscibility with 0.1 M LiClO4/DMSO: even at 50° C.
Excerpt: To understand the effect of the chain length of the RF group, the discharge profiles of Ph-NO2-C6 (o) vs. Ph-NO2-C8 (o) and Ph-CN-C6 (p) vs. Ph-CN-C8 (p) were compared. As is shown in FIG. 5, up to 11 e- or 15 e- transfer per molecule (calculated based on capacities) can be obtained during discharge for C6 or C8 containing reactants, respectively. […] For example, Ph-CN-C6 (p) is liquid and miscible with DMSO at RT, but its C8 counterpart is solid at RT and is only soluble at elevated temperatures (e.g., 50° C.).

miscibility with 0.1 M LiClO4/DMSO [2]	Structure (SMILES)	solubility / reachable concentration in 0.1 M LiClO4/DMSO ([2]; RT)	other results
	O=[N+]([O-])c1ccc(S(F)(F)(F)(F)F)cc1 [NO2-Ph-SF5, 4-Nitrophenylsulfur pentafluoride]		ionic conductivity of electrolyte ([1]; 0.1 M NO2-Ph-SF5): 6.4 mS·cm^−1; ionic conductivity of electrolyte ([1]; 5 M NO2-Ph-SF5): 0.6 mS·cm^−1
negligible miscibility	FC(F)(F)c1ccc(C=CC(F)(F)C(F)(F)C(F)(F)C(F)(F)C(F)(F)C(F)(F)F)cc1 [Ph-CF3—C6 (p)]		
	N#Cc1ccc(C=CC(F)(F)C(F)(F)C(F)(F)C(F)(F)C(F)(F)C(F)(F)C(F)(F)C(F)(F)F)cc1 [Ph-CN-C8 (p)]	not soluble	solubility limit in 0.1 M LiClO4/DMSO ([2]; 50° C.): 800 mM (≈ 438 mg/mL)
	N#Cc1ccc(C=CC(F)(F)C(F)(F)C(F)(F)C(F)(F)C(F)(F)C(F)(F)F)cc1 [Ph-CN-C6 (p)]		miscibility with DMSO ([2]; RT): miscible
	O=[N+]([O-])c1ccccc1C=CC(F)(F)C(F)(F)C(F)(F)C(F)(F)C(F)(F)C(F)(F)C(F)(F)C(F)(F)F [Ph-NO2—C8 (o)]	2000 mM (≈ 1130 mg/mL)	
negligible miscibility	FC(F)(F)c1ccccc1C=CC(F)(F)C(F)(F)C(F)(F)C(F)(F)C(F)(F)C(F)(F)F [Ph-CF3—C6 (o)]		
